Reference: patent US20250170100A1, “MONOACYLGLYCEROL LIPASE INHIBITORS AND USE THEREOF FOR THE TREATMENT OF ANXIETY AND RELATED CONDITIONS” (Psy Therapeutics, Inc., priority 2021, published 2025)
Like-named read-outs stand apart in the source and are kept apart here.

Columns and labels:
human MAGL [1] = target: T1, human MAGL (Homo sapiens (Human), UniProt Q99685); assay: MAGL inhibition potency assay with 4NPA substrate (methods of Table C); format: biochemical; settings: Method 1: Reaction Biology MAGL enzyme, 6 nM; read-out: MAGL Potency (Detection Method)
Excerpt: Cayman's Monoacylglycerol Lipase Inhibitor Screening Assay provides a method for screening human MAGL inhibitors. MAGL hydrolyzes 4-nitrophenylacetate resulting in a yellow product, 4-nitrophenol, with an absorbance of 405-412 nm. The monoacylglycerol lipase inhibitor screening assay kit from Cayman Chemical was used to measure the MAGL potency for the compounds in Table 3 and Table 4. Cayman's Monoacylglycerol Lipase Inhibitor Screening Assay provides a method for screening human MAGL inhibitors. MAGL hydrolyzes 4-nitrophenylacetate resulting in a yellow product, 4-nitrophenol, with an absorbance of 405-412 nm. MAGL Inhibition was measured by the following assay. Monoacylglycerol Lipase (MAGL) inhibition was measured using recombinant MAGL enzyme (aa 2-303 RBC, internal preparation) and the substrate 4-Nitrophenyl acetate (4NPA) (Sigma-Aldrich, N8130). Hydrolysis of the substrate in the presence of the enzyme was measured by absorbance at 405 nm. 10 μL of assay buffer (10 mM Tris pH 7.5, 1 mM EDTA, 0.9% DMSO) was added to a black 384-well non-binding plate with clear bottom (Greiner, 781906) for each reaction. […] DMSO control wells were included for reference. A 10.8 nM (1.8×) MAGL mix in assay buffer was prepared, with […] added to each reaction well, for a final assay concentration of 6 nM. No enzyme wells received 25 μL of buffer. Plate was incubated at room temperature for 30 minutes. 35 mM solution of 4NPA in methanol was prepared daily. A 4.5×4NPA substrate solution was prepared in assay buffer and 10 μL was added to each reaction well, for a final assay concentration of 0.25 mM. Plate was spun for 1 minute at 1000 rpm before measuring absorbance using a CLARIOstar plate reader (BMG Labtech). A kinetic reading at 405 nm was done every minute for 30 minutes. Data was analyzed using the linear slope of the reaction progress curve and the average of the no-enzyme wells (background) was subtracted from the data. The background-subtracted slope data was converted to % activity using the average of wells with enzyme and DMSO vehicle. IC50s were calculated using GraphPad software (Sigmoidal dose response, variable slope equation). […] Table 5 provides potency measurements of MAGL inhibition measured using the Potency Assay of Example 18 above, with the following modifications described in Table C. [table]
Target sequence in this assay (Q99685 2-303): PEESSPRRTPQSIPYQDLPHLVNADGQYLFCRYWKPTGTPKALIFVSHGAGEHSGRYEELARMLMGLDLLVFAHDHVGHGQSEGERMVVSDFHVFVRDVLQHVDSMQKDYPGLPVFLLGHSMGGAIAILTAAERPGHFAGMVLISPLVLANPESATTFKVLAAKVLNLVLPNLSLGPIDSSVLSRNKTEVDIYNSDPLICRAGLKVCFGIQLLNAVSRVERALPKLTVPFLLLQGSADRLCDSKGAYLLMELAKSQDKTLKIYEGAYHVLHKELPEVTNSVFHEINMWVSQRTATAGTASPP

human MAGL [2] = target: T1, human MAGL; assay: MAGL reversible inhibition assay (washout); format: biochemical
Experimental: The reversible mechanism of MAGL inhibition of a test compound of Formula (I) can be determined. Flag-tagged MAGL enzyme will be immobilized on anti-Flag beads. Immobilized enzyme will be incubated+/−inhibitor at a dose that produces complete inhibition. Colorimetric substrate (4-NPA) will be added and the reaction monitored on a plate reader for 30 minutes to verify complete inhibition. Immobilized enzyme will then be washed thoroughly to remove the inhibitor, and fresh substrate will be added. The reaction will be monitored for an additional 30 minutes; returning enzymatic activity will indicate reversibility of inhibition.
MAGL enzyme was incubated for 30 minutes in the presence of 40× the IC50 concentration of inhibitor. Enzyme+inhibitor mix was then diluted 40-fold so that the final concentration of the inhibitor equaled the IC50 concentration. Substrate was added and the reaction was monitored for 30 minutes.
Target sequence in this assay (Q99685 whole entry): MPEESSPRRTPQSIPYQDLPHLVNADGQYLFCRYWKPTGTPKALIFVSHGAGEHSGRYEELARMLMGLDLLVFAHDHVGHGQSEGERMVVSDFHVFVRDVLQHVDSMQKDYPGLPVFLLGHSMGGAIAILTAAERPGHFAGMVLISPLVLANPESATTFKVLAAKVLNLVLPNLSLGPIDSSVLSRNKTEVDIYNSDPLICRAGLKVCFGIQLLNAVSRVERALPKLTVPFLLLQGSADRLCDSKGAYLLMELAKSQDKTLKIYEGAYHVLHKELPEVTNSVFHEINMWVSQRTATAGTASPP

[3] = Plasma and brain concentrations after single intraperitoneal administration of Compound 74; format: in vivo, male C57BL/6 mice; settings: male, C57BL/6, mouse; for Kp at 0.5 h: brain/plasma, read-out: Brain Plama Ratio (Kp) range
Experimental: (§1) This experiment was performed to determine plasma pharmacokinetics and estimate 2-AG levels in male C57BL/6 mice brain following a single intraperitoneal administration of Compound-74 (Dose: 5, 15, 50 and 150 mg/kg). The experiment was repeated at 150 mg/kg on 3 separate test dates to obtain the data shown in FIG. 1A (plasma and brain concentration of Compound 74 30 minutes after IP injection), and on the first and third test dates to obtain the data shown in FIG. 1B (brain concentration of 2-AG30 minutes after IP injection of Compound 74).
(§2) Study Design: A total of thirty male mice were used into the study and divided in to five groups with six mice in each group (n=6 mice/group/treatment design). Animals in Group 1 to Group 4 were administered intraperitoneally with Compound 74 solution formulation at 5, 15, 50 and 150 mg/kg dose, respectively. Animals in Group 5 were administered intraperitoneally with vehicle at 2 mL/kg dose. Blood and brain samples were collected at 0.5 h post dose. Mice were euthanized by cervical dislocation and brain samples were dissected rapidly and snap frozen in liquid nitrogen, weighed and homogenized in 2 mL of acetonitrile containing 2-AGd5. Blood samples were centrifuged at 4000 rpm for 10 minutes at 4° C. Plasma was harvested and separated in pre-labeled tubes. All samples were stored below −70° C. until bioanalysis.
(§3) Analysis: Brain samples were processed for 2-AG estimation. 2-AG levels were the detected values. Plasma concentrations were determined by fit for purpose LC-MS/MS method. LLOQ: 5.09 ng/mL (Plasma and brain)

2-AG levels in brain = assay: 2-AG estimation in mouse brain after single intraperitoneal administration of Compound 74; format: in vivo, male C57BL/6 mice; settings: for Mean 2AG Brain Concentration: 0.5 h
Experimental: as §1, §2, §3

human MAGL [4] = target: T1, human MAGL; assay: MAGL inhibition potency assay with 4NPA substrate (methods of Table C); format: biochemical; settings: read-out: MAGL Potency (Detection Method)
Target sequence in this assay (Q99685 2-303): as the sequence (Q99685 2-303) above

Cc1cc(C2CC3(C2)CN(C(=O)c2cc(O)ccc2F)C3)n(-c2ccccc2C)n1 [Compound 74, (2-fluoro-5-hydroxyphenyl) (6-(3-methyl-1-(o-tolyl)-1H-pyrazol-5-yl)-2-azaspiro[3.3]heptan-2-yl) methanone]
IC50 (human MAGL [1]): < 50 nM | A: degree to which MAGL enzymatic activity returned following washout (human MAGL [2]; pre-washout compound concentration: 1 μM): 162 | B: % MAGL activity returning after washout (human MAGL [2]; relative to control, immediately following a 30 minute washout): >50% | concentration at 0.5 h ([3]; brain, IP 5 mg/kg, read-out: Brain concentration range): 16 to 19 ng/g | concentration at 0.5 h ([3]; brain, IP 15 mg/kg, read-out: Brain concentration range): 25 to 67 ng/g | concentration at 0.5 h ([3]; brain, IP 50 mg/kg, read-out: Brain concentration range): 34 to 1250 ng/g | concentration at 0.5 h ([3]; brain, IP 150 mg/kg, read-out: Brain concentration range): 2410 to 12100 ng/g | Kp at 0.5 h ([3]; IP 5 mg/kg): 0.51 to 0.68 | Kp at 0.5 h ([3]; IP 15 mg/kg): 0.16 to 0.44 | Kp at 0.5 h ([3]; IP 50 mg/kg): 0.06 to 0.08 | Kp at 0.5 h ([3]; IP 150 mg/kg): 0.07 to 0.2 | concentration at 0.5 h ([3]; plasma, IP 5 mg/kg, read-out: Plasma concentration range): 12 to 186 ng/mL | concentration at 0.5 h ([3]; plasma, IP 15 mg/kg, read-out: Plasma concentration range): 70 to 414 ng/mL | concentration at 0.5 h ([3]; plasma, IP 50 mg/kg, read-out: Plasma concentration range): 447 to 14900 ng/mL | concentration at 0.5 h ([3]; plasma, IP 150 mg/kg, read-out: Plasma concentration range): 34900 to 70300 ng/mL | Mean 2AG Brain Concentration (2-AG levels in brain; IP 5 mg/kg): 13.13 nmol/g | Mean 2AG Brain Concentration (2-AG levels in brain; IP 15 mg/kg): 13.46 nmol/g | Mean 2AG Brain Concentration (2-AG levels in brain; IP 50 mg/kg): 42.35 nmol/g | Mean 2AG Brain Concentration (2-AG levels in brain; IP 150 mg/kg): 120.02 nmol/g | levels of 2-AG compared to baseline (vehicle treatment) (2-AG levels in brain; IP 5 and 15 mg/kg dose): elevated slightly | levels of 2-AG compared to baseline (vehicle treatment) (2-AG levels in brain; IP 50 and 150 mg/kg dose groups): significant increase | IC50 (human MAGL [4]; Method 2: Cayman Chemical MAGL enzyme, 10 nM): < 50 nM | IC50 (human MAGL [4]; Method 3: Reaction Biology MAGL enzyme, 10 nM): < 50 nM | IC50 (human MAGL [4]; Method 4: Cayman Chemical MAGL enzyme, 15 nM): 50 to 150 nM | IC50 (human MAGL [4]; Method 5: Cayman Chemical MAGL enzyme, 25 nM): < 50 nM
